Target: Fatty acid synthase (Gallus gallus, UniProt P12276)
Test: FAS Activity Assay
Details: pH 7; 37 °C
Method: FAS activity was determined by monitoring the decrease in absorbence at 340 nm resulting from the oxidation of NADPH using an Amersham Pharmacia Ultrospec 4300 pro UV-Vis spectrophotometer at 37°C. The assay mixture contained 100 mM potassium phosphate buffer, pH 7.0, 1 mM EDTA (ethylenediaminetetraacetic acid), 2.5 μM acetyl-CoA, 10 μM malonyl-CoA, 32 μM NADPH, and 10 μg chicken liver FAS in a total volume of 2.0 mL [Tian et al., J. Biol. Chem., 260:11375-87]. Fast inhibition was determined by adding thioether to the reaction system before FAS initiated the reaction. The initial velocity was measured to calculate the remaining activity (RA) of FAS, and each assay was repeated three times.

Sequence of Fatty acid synthase (P12276 whole entry): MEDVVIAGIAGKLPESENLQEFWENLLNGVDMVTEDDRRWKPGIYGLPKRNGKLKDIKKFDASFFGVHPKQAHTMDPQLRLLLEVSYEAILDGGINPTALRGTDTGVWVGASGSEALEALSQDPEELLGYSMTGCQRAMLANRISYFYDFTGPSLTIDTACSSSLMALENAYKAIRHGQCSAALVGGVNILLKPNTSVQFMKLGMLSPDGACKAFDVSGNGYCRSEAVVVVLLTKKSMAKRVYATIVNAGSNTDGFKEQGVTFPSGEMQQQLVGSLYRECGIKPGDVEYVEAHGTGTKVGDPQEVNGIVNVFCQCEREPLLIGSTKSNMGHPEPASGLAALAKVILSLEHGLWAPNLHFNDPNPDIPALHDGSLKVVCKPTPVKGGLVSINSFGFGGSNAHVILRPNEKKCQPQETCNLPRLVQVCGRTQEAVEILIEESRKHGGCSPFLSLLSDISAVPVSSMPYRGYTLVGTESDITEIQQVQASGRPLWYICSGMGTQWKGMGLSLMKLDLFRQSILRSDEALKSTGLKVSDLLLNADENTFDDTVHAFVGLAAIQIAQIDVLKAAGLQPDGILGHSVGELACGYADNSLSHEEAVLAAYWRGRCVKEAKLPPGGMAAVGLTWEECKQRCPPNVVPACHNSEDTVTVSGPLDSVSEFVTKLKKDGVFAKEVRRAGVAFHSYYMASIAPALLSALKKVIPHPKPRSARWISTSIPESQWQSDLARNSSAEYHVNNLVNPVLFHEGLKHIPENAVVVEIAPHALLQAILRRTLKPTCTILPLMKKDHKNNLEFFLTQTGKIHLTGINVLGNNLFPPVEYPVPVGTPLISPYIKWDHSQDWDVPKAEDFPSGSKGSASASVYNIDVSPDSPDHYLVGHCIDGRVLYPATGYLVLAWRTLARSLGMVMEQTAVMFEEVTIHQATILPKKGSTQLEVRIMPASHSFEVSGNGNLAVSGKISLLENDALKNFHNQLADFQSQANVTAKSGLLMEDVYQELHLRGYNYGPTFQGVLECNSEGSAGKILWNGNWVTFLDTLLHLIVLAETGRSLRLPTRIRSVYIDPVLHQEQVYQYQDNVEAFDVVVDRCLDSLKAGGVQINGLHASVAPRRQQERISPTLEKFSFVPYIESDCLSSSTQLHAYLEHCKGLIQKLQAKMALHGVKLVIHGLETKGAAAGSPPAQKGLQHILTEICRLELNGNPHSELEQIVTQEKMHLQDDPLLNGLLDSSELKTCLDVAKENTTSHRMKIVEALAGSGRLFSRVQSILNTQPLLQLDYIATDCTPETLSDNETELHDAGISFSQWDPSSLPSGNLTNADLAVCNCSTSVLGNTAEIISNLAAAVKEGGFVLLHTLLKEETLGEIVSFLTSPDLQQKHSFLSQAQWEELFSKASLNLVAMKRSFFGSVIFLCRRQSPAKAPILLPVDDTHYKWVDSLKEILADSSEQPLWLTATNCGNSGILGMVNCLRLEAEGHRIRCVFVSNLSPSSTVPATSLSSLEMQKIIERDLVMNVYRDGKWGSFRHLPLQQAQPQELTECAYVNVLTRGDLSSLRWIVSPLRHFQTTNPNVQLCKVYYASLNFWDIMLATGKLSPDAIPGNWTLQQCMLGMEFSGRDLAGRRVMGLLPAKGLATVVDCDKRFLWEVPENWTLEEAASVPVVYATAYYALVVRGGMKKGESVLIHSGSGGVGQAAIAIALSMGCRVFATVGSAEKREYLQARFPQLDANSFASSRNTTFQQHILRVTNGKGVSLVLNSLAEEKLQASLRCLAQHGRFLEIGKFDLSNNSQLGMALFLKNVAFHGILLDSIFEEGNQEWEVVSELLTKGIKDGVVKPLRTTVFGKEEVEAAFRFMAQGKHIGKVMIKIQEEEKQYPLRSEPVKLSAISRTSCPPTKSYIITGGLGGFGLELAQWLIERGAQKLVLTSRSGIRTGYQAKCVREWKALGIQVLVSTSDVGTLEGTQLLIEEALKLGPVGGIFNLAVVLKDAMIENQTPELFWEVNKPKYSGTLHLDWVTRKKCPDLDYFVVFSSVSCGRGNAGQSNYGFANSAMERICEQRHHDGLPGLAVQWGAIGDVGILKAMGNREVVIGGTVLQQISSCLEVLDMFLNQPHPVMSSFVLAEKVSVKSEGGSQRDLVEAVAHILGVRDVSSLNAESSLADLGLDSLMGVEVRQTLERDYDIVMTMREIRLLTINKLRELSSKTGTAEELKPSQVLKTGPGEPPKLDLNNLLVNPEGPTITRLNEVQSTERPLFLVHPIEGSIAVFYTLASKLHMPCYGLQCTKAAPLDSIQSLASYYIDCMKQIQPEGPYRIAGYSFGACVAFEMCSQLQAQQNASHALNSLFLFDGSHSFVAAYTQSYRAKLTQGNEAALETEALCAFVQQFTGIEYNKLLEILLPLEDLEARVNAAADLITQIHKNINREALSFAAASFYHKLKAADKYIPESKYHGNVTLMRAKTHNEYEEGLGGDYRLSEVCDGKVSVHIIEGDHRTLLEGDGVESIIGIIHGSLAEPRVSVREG

Compound	IC50 [µM]
C=CCSSCC=C [3-Allyldisulfanyl-propene]	145
C=CCSSSCC=C [Diallyl trisulfide]	8.37
CSSC [Dimethyl disulfide]	2210

From BindingDB's records for doi:10.3109/14756360903179377 (Graduate University of Chinese Academy of Sciences, 2010)
